A short description of data set [1]: Decomposition of pseudomonic acid during the process of preparing the calcium salt. The format is physicochemical. To be noted: for Related Substances (from process) P.A. D / Decomposition Products D.P. I / Decomposition Products D.P. II / Related Substances (from process) P.A. B / Related Substances (from process) P.A. C / Related Substances (from process) P.A. E: before / after preparation of the calcium salt; for Decomposition Products D.P. I / Decomposition Products D.P. II / Related Substances (from process) P.A. B / Related Substances (from process) P.A. C / Related Substances (from process) P.A. E: unit assumed. The procedure: The calcium pseudomonate solution was prepared by a slow addition of solid calcium hydroxide to a suspension of pseudomonic acid in water. The calcium salt formed is gradually dissolved. The almost clear solution is filtered and frozen.
Pseudomonic acid (100 gr.) is suspended in water (1000 ml). The mixture is cooled below 15° C. and calcium hydroxide (ca. 7.0 gr.) is added gradually until the pH is 8. The slightly turbid mixture is filtered and the solution is frozen and lyophilized. The product obtained is crushed and milled to give amorphous calcium pseudomonate in quantitative yield.

A short description of data set [2]: Stability on storage (related substances and decomposition products). The format is physicochemical. The following applies: for Decomposition Products D.P. I / Related Substances (from process) P.A. B / Related Substances (from process) P.A. C / Related Substances (from process) P.A. D / Related Substances (from process) P.A. E: unit assumed.
The nature of data set [3]: Repeat of prior-art process (evaporation of solvents). The format is physicochemical. To be noted: prior-art process repeated, regardless of conditions used to distill out the water. The procedure: Process for the preparation of amorphous calcium pseudomonate is described in U.S. Pat. No. 4,916,155, U.S. Pat. No. 5,191,093 and U.S. Pat. No. 5,436,266. A solution of pseudomonic acid is dissolved in a mixture of methanol and water and neutralized to pH 7.1 with calcium oxide. The solution is filtered and the solvents are evaporated under reduced pressure to give solid foam. Trituration of the foam with diethyl ether affords amorphous calcium pseudomonate.
This decomposition occurred regardless of the conditions used to distill out the water.

The conditions of data set [4]: on storage, prior patents; cited from earlier work.

For the compound `C/C(=C\C(=O)OCCCCCCCCC(=O)O)C[C@@H]1OC[C@H](C[C@@H]2O[C@H]2[C@@H](C)[C@H](C)O)[C@@H](O)[C@H]1O` [pseudomonic acid, Pseudomonic acid A], in data set [1], the “Related Substances (from process) P.A. D” value was determined as 1.17, the Decomposition Products D.P. I is 0.58%, the Decomposition Products D.P. II was determined as 0.81% and the Related Substances (from process) P.A. B turned out to be 0.57%. For the same compound, in data set [1], the Related Substances (from process) P.A. C was determined as 0.16% and the Related Substances (from process) P.A. E was 0.21%. In addition, in data set [1] (process of the present invention), the “Decomposition during the preparation of the calcium salt (in words)” value was “no decomposition”.
Take `C/C(=C\C(=O)OCCCCCCCCC(=O)[O-])C[C@@H]1OC[C@H](C[C@@H]2O[C@H]2[C@@H](C)[C@H](C)O)[C@@H](O)[C@H]1O.C/C(=C\C(=O)OCCCCCCCCC(=O)[O-])C[C@@H]1OC[C@H](C[C@@H]2O[C@H]2[C@@H](C)[C@H](C)O)[C@@H](O)[C@H]1O.[Ca+2]` [amorphous calcium pseudomonate, calcium pseudomonate]: the “Decomposition on storage (in words)” value in data set [2] (stored at an appropriate temperature) is “did not show decomposition”. In data set [2] (t = 0), the “Decomposition Products D.P. II” value is 1.00, the Decomposition Products D.P. I was determined as 0.44%, the Related Substances (from process) P.A. B was 0.1% and the Related Substances (from process) P.A. C was 0.09%. Further, in data set [2] (t = 0), the Related Substances (from process) P.A. D turned out to be 0.9% and the Related Substances (from process) P.A. E was 0.1%. Also, in data set [2] (t = 18 months (at 2-8° C.)), the “Decomposition Products D.P. II” value was 1.06, the Decomposition Products D.P. I is 0.62%, the Related Substances (from process) P.A. B amounted to 0.18% and the Related Substances (from process) P.A. C turned out to be 0.08%. In addition, in data set [2] (t = 18 months (at 2-8° C.)), the Related Substances (from process) P.A. D was found to be 0.97% and the Related Substances (from process) P.A. E was found to be 0.09%. In addition, in data set [1], the “Related Substances (from process) P.A. D” value is 1.25, the Decomposition Products D.P. I stood at 0.62%, the Decomposition Products D.P. II was found to be 1.1% and the Related Substances (from process) P.A. B is 0.4%. In data set [1], the Related Substances (from process) P.A. C was 0.1% and the Related Substances (from process) P.A. E worked out at 0.15%. Further, the “Decomposition during the evaporation of the solvents (in words)” value in data set [3] is listed as “appreciable decomposition”. Also, the “Thermal stability (in words)” value in data set [4] is on record as “thermally labile”.

Source of the values: US20040039049A1, “Stable amorphous calcium pseudomonate and processes for the preparation thereof” (CHEMAGIS LTD, priority 2002, published 2004).
